Reference: patent US8362072B2, “BRCA1-based breast or ovarian cancer treatment agents and methods of use” (University of Kansas, priority 2007, dated 2013)

Assays:
human BRCA1 promoter = experiment: BRCA1-luciferase reporter assay (Steady-Glo) in stably transfected MCF7 cells; type: cell-based; conditions: for EC50 / EC90: MCF7-BRCA1-luciferase cells, dilution series; for BRCA1-luciferase activity (in words): MCF7 pGL4.14-hBRCA1.3 cells
Procedure: Hygromycin selected MCF7 cells were seeded in 384-well tissue culture plates. The first two columns of each plate were empty so as to include established positive and negative controls. Each of the remaining 352 wells contained a compound to be screened. MCF7 cells were incubated with the compounds for 48 hours. Luciferase activity was measured using the Steady Glo Luciferase Assay System (Promega). Briefly, 5×10^6 MCF7 cells were transfected with […] of purified pGL4.14 containing the human BRCA1 promoter (pGL4.14-hBRCA) with Effectene as per manufacturers protocol (Qiagen). Stable transfectants were selected with […] Hygromicin B. 1×10^5 or 2×10^5 stable transfectants were tested for luciferase activity with the Steady-Glo Luciferase Assay System (Promega).
Hygromycin selected MCF-7 cells (e.g., MCF7 clone pGL4.14-hBRCA1.3) stably transfected with the human BRCA1-luciferase reporter construct (e.g., pGL4.14-hBRCA1.3) were seeded in 384-well white tissue culture plates (Becton Dickenson, San Diego, Calif.) at 1×10^4 cells/well. These cells were then stimulated with indicated concentrations of genistein (Sigma-Aldrich, St. Louis, Mo.) for 0, 6, 9, 24 and 48 hours. Luciferase activity was measured using the Steady Glo Luciferase Assay System (Promega). The data shown in FIG. 3A is representative of 3 individual experiments.
Two different chemical libraries were screened for the ability to enhance BRCA1 gene expression. To examine the effects of each compound on BRCA1 expression, the human BRCA1 promoter was cloned and inserted upstream of the firefly luciferase gene in the plasmid pGL4.14 (BRCA1-Luc) (Promega), as described above. The ER positive human breast cancer cell line, MCF7, was transfected and stable transfectants were selected with hygromycin.
Briefly, compounds were plated in a 384 well plate in a total volume of 20 μl. A ten point dilution series was used at concentrations—100 µM, 10 μM, 1 μM, 100 nM, 10 nM, 1 nM, 0.1 nM, 0.01 nM, 0.0001 nM, 0 (DMSO vehicle only). A second dilution series of 100 μM, 32.5 μM, […], 3.6 μM, 1.2 μM, 400 nM, 132.2 nM, 45 nM, 14.8 nM, 5 nM, and 1.65 nM was also used. MCF7-BRCA1-luciferase cells were added to the compounds at a concentration of 1×10^4 cells/well in a volume of 25 μl. The 384 well plates, containing the compounds+cells, were then incubated at 37° C. for 48 hours. After 48 hours, luciferase activity was measured with the Steady-Glo® Luciferase Assay System (Promega, Madison, Wis.).

MCF7 cells = experiment: Cell viability of MCF7 cells (CellTiter 96 AQueous One); type: cell-based, human; conditions: 48 hours
Procedure: Additionally, the compounds were tested for cell viability. Compounds were plated at 2× in 50 μl MEM in triplicate in a clear 96 well tissue culture plate. A ten point dilution series was used at concentrations—100 μM, 10 μM, 1 μM, 100 nM, […], 1 nM, 0.1 nM, 0.01 nM, 0.0001 nM, 0 (DMSO vehicle only). MCF7 cells (5×10^3) were added in a volume of 50 μl MEM to the appropriate wells, diluting the compounds to 1×. Cells were incubated at 37° C. for 48 hours. 20 μl of CellTiter 96® AQueous One Solution Reagent (Promega) was added to each well and incubated for 3 hours at 37° C. Absorbance was measured at 490 nm using the Perkin Elmer Victor 3V plate reader. Absorbance signals were normalized to DMSO vehicle control and were expressed as percent viable.

BRCA1 protein = BRCA1 protein expression in MCF7 cells by Western blot; type: cell-based, human; conditions: 48 hours, compared to DMSO
Procedure: Compounds 29 and 30 were studied for BRCA1 and actin (e.g., housekeeping gene for normalization) protein expression. Briefly, MCF7 cells (2×10^6) in 2 ml MEM were plated in a 6 well tissue culture plate and were either left nonstimulated or treated with DMSO (vehicle control), […] Genistein, or 3 different concentrations of indicated test compound—3.65 μM, […], 32.5 μM. Following incubation at 37° C. for 48 hours, the media was removed and the cells were washed 1× with 500 μl of ice cold PBS. Another 500 μl of ice cold PBS was then added and the cells were scraped off the well and transferred to a microcentrifuge tube. To ensure all cells were removed from the well, an additional […] of ice cold PBS was added to the well and any remaining cells were combined with the initial cell harvest into the microcentrifuge tube. The cells were then pelleted by centrifugation for 5 min at 3000 rpm, 4° C. The supernate was removed and the pellet was then lysed in 150 μl of ice cold RIPA buffer+1× protease inhibitors, on ice for 30 minutes, vortexing occasionally. The cellular debris was then removed by centrifugation for 20 minutes at 11,000 rpm, 4° C. The remaining supernate, containing the extracted proteins, was then transferred to a microcentrifuge tube and quantified using the Bio-Rad DC assay. 100 μg of protein+1×SDS-PAGE sample buffer was loaded onto an 8% Tris glycine gel. The proteins were separated in a tris glycine running buffer at 125 volts for 90 minutes. The proteins were then transferred out of the gel onto PVDF in an overnight transfer with 20% methanol at 35 volts, 4° C. The PVDF membrane was then blocked with 5% milk/PBST (0.1%) for 1 hour at room temperature (RT). BRCA1 protein was detected using anti-BRCA1 (Ab-1, EMD Biosciences) at a 1:250 dilution in 3% milk/PBST, overnight at 4° C. […] To monitor equal protein loading, actin was detected using anti-actin at a 1:200,000 dilution in 5% milk/PBST for 1 hr at RT. […] Chemiluminescence was detected using the SuperSignal West Femto kit made by Pierce Biotechnology and the UVP imaging center. […]

SMILES | EC50 (human BRCA1 promoter; Homo sapiens, MCF7, 48 h) | EC90 (human BRCA1 promoter; Homo sapiens, 48 hours) | further results
Cc1[nH]n(-c2ccc([N+](=O)[O-])cc2)c(=O)c1/C=N/C1CCCC1 [Cmpd 18] | 11.2 µM | 17.2 µM | 
COc1ccc(-c2nc3cc(C)ccc3o2)cc1N [Cmpd 4] | 0.729 µM | 1.77 µM | 
O/N=C(\CSc1nc2ccccc2[nH]1)c1ccccc1 [Cmpd 11] | 6.77 µM | 80.5 µM | BRCA1-luciferase activity (in words) (human BRCA1 promoter; 48 hours): comparatively superior to Compound 13
Cc1cccc(-c2noc(-c3cccs3)n2)c1 [Cmpd 10] | 0.218 µM | 2.56 µM | 
Clc1cccc(CNc2ccc3[nH]c(-c4ccco4)nc3c2)c1 [JN1-82] | 2.05 µM | 4.94 µM | BRCA1-luciferase activity (in words) (human BRCA1 promoter; 48 hours): rank with the other top compounds and genistein
COc1ccc(/C=N/c2ccc3[nH]c(-c4ccccc4)nc3c2)cc1OC [Cmpd 23] | 10.7 µM | ~11.8 µM | 
Fc1ccc(Nc2nc(-c3ccccc3)cs2)cc1 [Cmpd 5] | 11.6 µM | ~13.8 µM | 
CC(C)c1ccc(OCC(=O)O/N=C(\N)c2ccncc2)c(Br)c1 [Cmpd 14] | 106 µM | 998 µM | BRCA1-luciferase activity (in words) (human BRCA1 promoter; 48 hours): comparatively superior to Compound 13
Fc1cccc(/C=N/c2ccc3[nH]c(-c4ccco4)nc3c2)c1 [JN1-78] | 17.4 µM | 49.4 µM | 
COc1ccc2c(c1OC)C(=O)N(c1ccc(C)cc1)C2 [Cmpd 32] | 9.43 µM | 46.8 µM | 
O=C(Nc1ccc(Cl)c(Cl)c1)c1ccccc1Br [Cmpd 9] | 1.3 µM | 10.1 µM | BRCA1-luciferase activity (in words) (human BRCA1 promoter; 48 hours): comparatively superior, but similar to Compound 8 and 10
CC(=O)c1cc(C#N)c(SC/C=C/c2ccccc2)nc1C [Cmpd 19] | 20.6 µM | 79.4 µM | 
CC(C)(C)C(=O)Nc1cccc(C(=O)Nc2ccc(Cl)cc2)c1 [Cmpd 2] | 70.5 µM | 967 µM | toxicity (cell viability) compared to genistein (MCF7 cells): less toxic compared to genistein
Fc1cccc(CNc2ccc3[nH]c(-c4ccco4)nc3c2)c1 [JN1-76] | 2.42 µM | 5.94 µM | BRCA1-luciferase activity (in words) (human BRCA1 promoter; 48 hours): rank with the other top compounds and genistein
c1ccc(CNc2ccc3[nH]c(-c4ccco4)nc3c2)cc1 [JN1-68] | 3.53 µM | 8.84 µM | BRCA1-luciferase activity (in words) (human BRCA1 promoter; 48 hours): rank with the other top compounds and genistein
Oc1c(F)cccc1/C=N/c1ccc2oc(-c3ccccc3)nc2c1 [Cmpd 1] | 6.82 µM | 54.9 µM | toxicity (cell viability) compared to genistein (MCF7 cells): less toxic compared to genistein
Cc1ccc(-c2nc3ccc(NCc4cccs4)cc3o2)cc1 [Cmpd 26] |  | 366 µM | EC50 (human BRCA1 promoter; 48 hours): 28.7 µM
O=C(COc1cccc2cccnc12)N1CCc2ccccc21 [Cmpd 16] |  | ~38.8 µM | 

SMILES | EC50 (human BRCA1 promoter; Homo sapiens, MCF7, 48 h) | EC90 (human BRCA1 promoter; Homo sapiens, 48 hours) | further results
Cn1nnc(-c2ccc(OCc3ccccc3F)cc2)n1 [Cmpd 12] | 1.67 µM | 15.8 µM | BRCA1-luciferase activity (in words) (human BRCA1 promoter; 48 hours): comparatively superior to Compound 13
COc1ccc(/C(O)=C\C=N\c2ccccc2OC)cc1 [Cmpd 22] | 11 µM | 20.7 µM | 
N/C(=N\OC(=O)c1ccoc1)c1ccc(Br)cc1 [Cmpd 20] | 50.3 µM | 170 µM | 
O=c1c(-c2ccc(O)cc2)coc2cc(O)cc(O)c12 [Genistein, genistein, reference compound] | 14.5 µM | 25 µM | BRCA1-luciferase activity (in words) (human BRCA1 promoter; 48 hours): dose-dependent increase in BRCA1-luciferase activity; BRCA1-luciferase activity (in words) (human BRCA1 promoter; 48 hours, listed as genistein): increase in BRCA1-luciferase activity; BRCA1 protein expression (BRCA1 protein): increase in BRCA1 protein
Cc1cc(C(=O)Nc2ccc(N3CCOCC3)cc2)ccc1[N+](=O)[O-] [Cmpd 3] | 8.73 µM | 47.3 µM | BRCA1-luciferase activity (in words) (human BRCA1 promoter; 48 hours): comparatively superior
Cc1cccc(/C=N/c2ccc3[nH]c(-c4ccco4)nc3c2)c1 [JN1-72] | 25.8 µM | 110 µM | 
O=c1c(-c2ccc(O)cc2)coc2cc(O)ccc12 [Daidzein, reference compound] |  |  | BRCA1-luciferase activity (in words) (human BRCA1 promoter; 48 hours): dose-dependent increase in BRCA1-luciferase activity
Fc1ccc(-c2nnc(-c3ccc(F)cc3)o2)cc1 [Cmpd 6] | 1.64 µM | 24.2 µM | 
N/C(=N\OC(=O)Cc1cccs1)c1ccc(Cl)cc1 [Cmpd 8] | 2150 µM |  | 
O=C(CSc1nc(=O)cc(O)[nH]1)c1ccccc1 [Cmpd 7] | 2060 µM | ~63700 µM | 
Clc1cccc(/C=N/c2ccc3[nH]c(-c4ccco4)nc3c2)c1 [JN1-77] | 34.9 µM | 196 µM | 
O=C(Nc1ccc(Br)cn1)c1ccc(Oc2ccccc2)cc1 [Cmpd 28] | 6.96 µM |  | 
COc1ccccc1OCC(=O)O/N=C(\N)c1ccccn1 [Cmpd 13] | 69.6 µM | 377 µM | 
NNC(=O)c1nc(-c2ccccc2)cc(-c2ccccc2)n1 [Cmpd 27] |  | 0.00186 µM | 
CC(=O)c1ccc(/N=C/c2ccc(OCc3ccc(F)cc3)cc2)cc1 [Cmpd 31] | 4.88 µM | 71.5 µM | 
Cc1ccc(C(=O)Nc2ccc3c(c2)oc2ccccc23)o1 [Cmpd 17] | 0.948 µM | 2.85 µM | 
Cc1ccc(-c2nc3ccc(NCc4cccs4)cc3o2)cc1 [Cmpd 25] |  |  | EC50 (human BRCA1 promoter; 48 hours): 8.63 µM
Cc1ccc(/C(O)=C/C=N/c2cccc(Cl)c2C)cc1 [Cmpd 21] | 11.2 µM | ~9.72 µM | 
